Assay results published in ChEMBL document CHEMBL5523727, “Discovery of KT-413, a Targeted Protein Degrader of IRAK4 and IMiD Substrates Targeting MYD88 Mutant Diffuse Large B-Cell Lymphoma” (J Med Chem, 2024).

Experiments:
[1] = biological target: T1, Protein cereblon/Interleukin-1 receptor-associated kinase 4 (Homo sapiens, UniProt Q9NWZ3+Q96SW2); assay: PROTAC activity at CRBN/IRAK4 in human OCI-Ly10 cells assessed as induction of IRAK4 degradation measured after 24 hrs by MSD assay; type: cell-based
Target sequence in this assay (Q9NWZ3 whole entry): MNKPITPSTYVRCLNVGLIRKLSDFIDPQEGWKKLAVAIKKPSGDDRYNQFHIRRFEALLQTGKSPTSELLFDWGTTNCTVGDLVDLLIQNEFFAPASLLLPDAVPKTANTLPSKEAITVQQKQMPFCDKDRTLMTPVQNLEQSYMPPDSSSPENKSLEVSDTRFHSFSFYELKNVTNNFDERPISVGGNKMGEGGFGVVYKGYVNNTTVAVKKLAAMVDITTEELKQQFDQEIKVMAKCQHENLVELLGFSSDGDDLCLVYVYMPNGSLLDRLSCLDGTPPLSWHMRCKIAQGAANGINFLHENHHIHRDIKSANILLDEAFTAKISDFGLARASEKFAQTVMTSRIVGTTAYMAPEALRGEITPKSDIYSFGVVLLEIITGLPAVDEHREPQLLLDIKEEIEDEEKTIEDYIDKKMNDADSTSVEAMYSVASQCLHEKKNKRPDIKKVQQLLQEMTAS
Target sequence in this assay (Q96SW2 whole entry): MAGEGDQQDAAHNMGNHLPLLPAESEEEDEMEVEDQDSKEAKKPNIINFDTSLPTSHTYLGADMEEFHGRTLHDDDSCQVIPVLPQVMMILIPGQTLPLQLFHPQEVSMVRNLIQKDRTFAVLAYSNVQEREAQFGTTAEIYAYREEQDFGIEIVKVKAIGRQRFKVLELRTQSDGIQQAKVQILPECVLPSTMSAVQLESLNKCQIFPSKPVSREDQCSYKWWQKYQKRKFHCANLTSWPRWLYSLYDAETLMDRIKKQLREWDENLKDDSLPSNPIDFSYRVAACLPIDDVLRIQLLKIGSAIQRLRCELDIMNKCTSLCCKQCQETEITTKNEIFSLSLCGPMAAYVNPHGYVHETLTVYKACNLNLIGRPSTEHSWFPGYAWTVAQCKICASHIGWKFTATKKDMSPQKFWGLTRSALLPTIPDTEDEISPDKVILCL

Cereblon/Ikaros = Cereblon/Ikaros (Homo sapiens, UniProt Q96SW2+Q13422); assay: PROTAC activity at CRBN/Ikaros in human OCI-Ly10 cells assessed as induction of Ikaros degradation measured after 24 hrs by MSD assay; type: cell-based
Chain of Cereblon/Ikaros (Q96SW2 whole entry): as above
Chain of Cereblon/Ikaros (Q13422 whole entry): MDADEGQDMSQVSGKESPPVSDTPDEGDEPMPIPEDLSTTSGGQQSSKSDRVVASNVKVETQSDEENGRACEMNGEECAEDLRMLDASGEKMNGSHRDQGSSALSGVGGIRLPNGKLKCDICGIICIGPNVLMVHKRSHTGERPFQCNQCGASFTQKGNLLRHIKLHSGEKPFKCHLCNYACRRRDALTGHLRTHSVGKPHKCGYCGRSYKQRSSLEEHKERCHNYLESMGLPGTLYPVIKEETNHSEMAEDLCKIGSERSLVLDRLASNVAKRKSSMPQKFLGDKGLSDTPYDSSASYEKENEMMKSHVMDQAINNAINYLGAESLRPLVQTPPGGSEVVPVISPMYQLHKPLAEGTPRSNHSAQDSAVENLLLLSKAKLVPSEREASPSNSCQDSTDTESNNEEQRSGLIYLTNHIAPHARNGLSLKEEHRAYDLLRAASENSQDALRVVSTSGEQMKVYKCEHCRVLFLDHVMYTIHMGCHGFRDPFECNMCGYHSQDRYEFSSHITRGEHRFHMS

Protein cereblon = Protein cereblon (Homo sapiens, UniProt Q96SW2); assay: Binding affinity to CRBN (unknown origin) by HTRF assay
Chain of Protein cereblon (Q96SW2 whole entry): as the sequence (Q96SW2 whole entry) above

OCI-Ly10 = assay: Antiproliferative activity against human OCI-Ly10 cells measured after 4 days by CellTiter-Glo Luminescent Cell Viability Assay; type: functional, cell-based
[2] = Passive permeability of the compound in wild type MDCK cells across apical to basolateral side at 1 uM measured for 120 mins by LC-MS/MS analysis; type: ADME, cell-based, Canis lupus familiaris; conditions: dog, read-out: permeability
[3] = Metabolic stability in human liver microsomes assessed as intrinsic clearance at 1 uM measured upto 60 mins in presence of NADPH by UPLC/MS-MS analysis; type: ADME, Microsome; conditions: read-out: CLH
[4] = Metabolic stability in rat liver microsomes assessed as intrinsic clearance at 1 uM measured upto 60 mins in presence of NADPH by UPLC/MS-MS analysis; type: ADME, Microsome; conditions: read-out: CLH
[5] = Clearance in rat at 2 mg/kg, iv by LC-MS/MS analysis; type: ADME, organism-based; conditions: in vivo
[6] = Volume of distribution at steady state in rat at 2 mg/kg, iv by LC-MS/MS analysis; type: ADME, organism-based; conditions: in vivo, read-out: Vdss
[7] = Half life in rat at 2 mg/kg, iv by LC-MS/MS analysis; type: ADME, organism-based; conditions: in vivo
[8] = AUC in rat at 10 mg/kg, po by LC-MS/MS analysis; type: ADME, organism-based; conditions: in vivo
[9] = Oral bioavailability in rat at 10 mg/kg by LC-MS/MS analysis; type: ADME, organism-based; conditions: in vivo; for F: po, 10 mg/kg
[10] = biological target: Protein cereblon/Interleukin-1 receptor-associated kinase 4 (Homo sapiens, UniProt Q96SW2+Q9NWZ3); assay: Binding affinity to CRBN/IRAK4 […] assessed as dissociation constant by DiscoverX Kd Elect assay
Chain of Protein cereblon/Interleukin-1 receptor-associated kinase 4 (Homo sapiens, UniProt Q96SW2+Q9NWZ3) (Q9NWZ3 whole entry): as the sequence (Q9NWZ3 whole entry) above
Chain of Protein cereblon/Interleukin-1 receptor-associated kinase 4 (Homo sapiens, UniProt Q96SW2+Q9NWZ3) (Q96SW2 whole entry): as the sequence (Q96SW2 whole entry) above

[11] = biological target: T1, Protein cereblon/Interleukin-1 receptor-associated kinase 4; assay: PROTAC activity at CRBN/IRAK4 in human OCI-Ly10 cells assessed as induction of IRAK4 degradation measured after 24 hrs by MSD assay relative to control; type: cell-based
Target sequence in this assay (Q96SW2 whole entry, looked up): as the sequence (Q96SW2 whole entry) above
Target sequence in this assay (Q9NWZ3 whole entry, looked up): as the sequence (Q9NWZ3 whole entry) above

Compound	DC50 [1] [nM]	DC50 (Cereblon/Ikaros) [nM]	IC50 (Protein cereblon) [nM]	IC50 (OCI-Ly10; Homo sapiens, OCI-Ly10, 96 h) [nM]	Papp A→B at 2 h, 1 µM [2] [×10⁻⁶ cm/s]	microsomal CLint at 1 µM [3] [µL/min/mg]	microsomal CLint at 1 µM [4] [µL/min/mg]	clearance [5] [mL/min/kg]	Vd [6] [L/kg]	half-life [7] [h]	AUC ([8]; read-out: AUC) [µM·h]	bioavailability [9] [%]	Kd [10] [nM]	Emax [11] [%]	AUC ([8]; po, 10 mg/kg) [µM·h]	F [9] [%]	IC50 (OCI-Ly10; oci-ly10) [nM]
CC(C)(O)c1cc2nn([C@H]3CC[C@H](CN4CCC5(CC4)CC(Nc4cccc6c4C(=O)N(C4CCC(=O)NC4=O)C6=O)C5)CC3)cc2cc1NC(=O)c1cccc(C(F)(F)F)n1 (stereo not given in full)	3	27	10	25	2.8	1.2	2.7	13	13	12	1.4	17	–	–	–	–	–
CC(C)(O)c1cc2nn([C@H]3CC[C@H](CO)CC3)cc2cc1NC(=O)c1cccc(C(F)(F)F)n1	–	–	–	–	–	–	–	–	–	–	–	–	0.37	–	–	–	–
CN(CCCNc1cccc2c1C(=O)N(C1CCC(=O)NC1=O)C2=O)C[C@H]1CC[C@H](n2cc3cc(NC(=O)c4cccc(C(F)(F)F)n4)c(C(C)(C)O)cc3n2)CC1 (stereo not given in full)	36	10	62	120	0.66	140	138	–	–	–	–	–	0.38	–	–	–	–
CC(C)(O)c1cc2c(cnn2CCCCCCCCCNc2cccc3c2C(=O)N(C2CCC(=O)NC2=O)C3=O)cc1NC(=O)c1cccc(C(F)(F)F)n1 (stereo not given)	> 10000	56	880	660	–	–	–	–	–	–	–	–	> 3000	30	–	–	–
COc1cc2nc([C@H]3CC[C@H](CN4CC5(CC(CCNc6cccc7c6C(=O)N(C6CCC(=O)NC6=O)C7=O)C5)C4)CC3)n(C)c2cc1NC(=O)c1cccc(C(F)(F)F)n1 (stereo not given in full)	33	2	–	35	0.4	7	2.2	41	33	11	0.09	2.3	–	–	–	–	–
CC(C)(O)c1cc2nn(-c3ccc(CO)cc3)cc2cc1NC(=O)c1cccc(C(F)(F)F)n1	–	–	–	–	–	–	–	–	–	–	–	–	3.5	–	–	–	–
COc1cc2nn([C@H]3CC[C@H](CN4CCC5(CC4)CC(CNc4cccc6c4C(=O)N(C4CCC(=O)NC4=O)C6=O)C5)CC3)cc2cc1NC(=O)c1cccc(C(F)(F)F)n1 (stereo not given in full)	16	43	66	84	1.3	2.7	1.6	–	11	25	–	–	–	–	1.88	11	–
CN(CCCO[C@H]1C[C@H](Nc2cccc3c2C(=O)N(C2CCC(=O)NC2=O)C3=O)C1)C[C@H]1CC[C@H](n2cc3cc(NC(=O)c4cccc(C(F)(F)F)n4)c(C(F)F)cc3n2)CC1 (stereo not given in full)	13	17	24	46	0.76	25	32	–	–	–	–	–	–	–	–	–	–
COc1cc2nn([C@H]3CC[C@H](CN(C)CCCO[C@H]4C[C@H](Nc5cccc6c5C(=O)N(C5CCC(=O)NC5=O)C6=O)C4)CC3)cc2cc1NC(=O)c1cccc(C(F)(F)F)n1 (stereo not given in full)	29	28	23	360	2.4	19	10	–	–	–	–	–	–	–	–	–	–
CN(C[C@H]1CC[C@H](n2cc3cc(NC(=O)c4cccc(C(F)(F)F)n4)c(C(C)(C)O)cc3n2)CC1)[C@H]1CC[C@]2(CC1)C[C@H](Nc1cccc3c1C(=O)N(C1CCC(=O)NC1=O)C3=O)C2 (stereo not given in full)	6	57	8	78	2.1	< 1.8	< 1.8	–	–	–	–	–	–	–	–	–	–
CN(C[C@H]1CC[C@H](n2cc3cc(NC(=O)c4cccc(C(F)(F)F)n4)c(C(C)(C)O)cc3n2)CC1)[C@H]1CCC2(CC1)C[C@H](Nc1cccc3c1C(=O)N(C1CCC(=O)NC1=O)C3=O)C2 (stereo not given in full)	–	–	–	–	–	–	–	–	–	–	–	–	–	86	–	–	–
CC(C)(O)c1cc2nn([C@H]3CC[C@H](CN4CCC(O[C@H]5C[C@H](Nc6cccc7c6C(=O)N(C6CCC(=O)NC6=O)C7=O)C5)CC4)CC3)cc2cc1NC(=O)c1cccc(C(F)(F)F)n1 (stereo not given in full)	5	470	26	2300	26	4.1	3.8	7	8.9	16	5.3	29	–	–	–	–	–
CN(CCCOCCCNc1cccc2c1C(=O)N(C1CCC(=O)NC1=O)C2=O)C[C@H]1CC[C@H](n2cc3cc(NC(=O)c4cccc(C(F)(F)F)n4)c(C(C)(C)O)cc3n2)CC1 (stereo not given in full)	12	21	32	270	7.5	60	53	–	–	–	–	–	0.66	–	–	–	–
COc1cc2nc([C@H]3CC[C@H](CN4CC5(CC(CCNc6cccc7c6C(=O)N(C6CCC(=O)NC6=O)C7=O)C5)C4)CC3)cn2cc1NC(=O)c1cccc(C(F)(F)F)n1 (stereo not given in full)	38	26	–	154	0.64	< 1.8	< 1.8	40	43	15	0.01	< 1	–	–	–	–	–
CN(CCCO[C@H]1C[C@H](Nc2cccc3c2C(=O)N(C2CCC(=O)NC2=O)C3=O)C1)C[C@H]1CC[C@H](n2cc3cc(NC(=O)c4cccc(C(F)(F)F)n4)ccc3n2)CC1 (stereo not given in full)	33	10	24	75	5.5	102	11	–	–	–	–	–	–	–	–	–	–
CC(C)(O)c1cc2nn(CCCCCNCCCNc3cccc4c3C(=O)N(C3CCC(=O)NC3=O)C4=O)cc2cc1NC(=O)c1cccc(C(F)(F)F)n1 (stereo not given)	128	17	79	125	0.42	–	–	–	–	–	–	–	2.2	–	–	–	–
CC(C)(O)c1cc2nn(CCCCCCCCCNc3cccc4c3C(=O)N(C3CCC(=O)NC3=O)C4=O)cc2cc1NC(=O)c1cccc(C(F)(F)F)n1 (stereo not given)	3300	55	> 1100	588	–	–	–	–	–	–	–	–	320	–	–	–	–
CN(C[C@H]1CC[C@H](n2cc3cc(NC(=O)c4cccc(C(F)(F)F)n4)c(C(C)(C)O)cc3n2)CC1)[C@H]1CC[C@@]2(CC1)C[C@H](Nc1cccc3c1C(=O)N(C1CCC(=O)NC1=O)C3=O)C2 (stereo not given in full)	13	19	5	–	2.9	< 1.8	< 1.8	–	–	–	–	–	–	–	–	–	134
CN(CCCO[C@H]1C[C@H](Nc2cccc3c2C(=O)N(C2CCC(=O)NC2=O)C3=O)C1)C[C@H]1CC[C@H](n2cc3cc(NC(=O)c4cccc(C(F)(F)F)n4)c(C(C)(C)O)cc3n2)CC1 (stereo not given in full)	4	5	21	14	4.9	68	26	36	9.5	3.8	0.76	15	0.63	–	–	–	–
CN(CCCO[C@H]1C[C@@H](Nc2cccc3c2C(=O)N(C2CCC(=O)NC2=O)C3=O)C1)C[C@H]1CC[C@H](n2cc3cc(NC(=O)c4cccc(C(F)(F)F)n4)c(C(C)(C)O)cc3n2)CC1 (stereo not given in full)	43	10	75	166	2.8	26	16	–	–	–	–	–	0.34	–	–	–	–
Nc1cccc2c1C(=O)N(C1CCC(=O)NC1=O)C2=O (stereo not given) [POMALIDOMIDE]	–	–	–	1400	–	–	–	–	–	–	–	–	–	–	–	–	–
COc1cc2nn([C@H]3CC[C@H](CN4CC5(CC(CCNc6cccc7c6C(=O)N(C6CCC(=O)NC6=O)C7=O)C5)C4)CC3)cc2cc1NC(=O)c1cccc(C(F)(F)F)n1 (stereo not given in full)	8	9	27	48	1	0.79	1.6	–	29	17	–	–	–	–	0.13	4.2	–
CN(CCCN(C)c1cccc2c1C(=O)N(C1CCC(=O)NC1=O)C2=O)C[C@H]1CC[C@H](n2cc3cc(NC(=O)c4cccc(C(F)(F)F)n4)c(C(C)(C)O)cc3n2)CC1 (stereo not given in full)	14	282	200	308	4.2	300	250	–	–	–	–	–	0.64	–	–	–	–
O=C1CCC(N2C(=O)c3cccc(NCC4CC5(CCN(C[C@H]6CC[C@H](n7cc8cc(NC(=O)c9cccc(C(F)(F)F)n9)c(C(F)F)cc8n7)CC6)CC5)C4)c3C2=O)C(=O)N1 (stereo not given in full)	56	69	58	142	2.7	< 1.8	< 1.8	–	11	29	–	–	–	–	1.5	16	–
